In patent US20060069132A1, “Azolecarboxamide herbicides” (priority 2004, published 2006):

Tests used:
Assay in all cases: Test C postemergence herbicide test
winter barley = type: in vivo, Hordeum vulgare
In short: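 Plants were grown to the 1- to 4-leaf stage (2–18 cm) and then treated postemergence, or grown to the 2-leaf stage for the flooded paddy test. They were held in a greenhouse for 12 to 14 days and then scored by eye against controls, where 0 is no effect and 100 is complete control.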

blackgrass = type: in vivo, Alopecurus myosuroides
In short: (§1)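 Postemergence sprays were applied to plants 2 to 18 cm tall (1- to 4-leaf stage); in the flooded paddy test, barnyardgrass was grown to the 2-leaf stage. After 12 to 14 days in a greenhouse, injury was visually rated against untreated controls on a 0–100 scale (100 = complete control).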

canarygrass = type: in vivo, Phalaris minor
In short: as §1

green foxtail = type: in vivo, Setaria viridis
In short: as §1

windgrass = type: in vivo, Apera spica-venti
In short: as §1

[1] = Postemergence, 250 g ai/ha, scale 0 to 100, 0 no effect, 100 complete control
[2] = Postemergence, 500 g ai/ha, scale 0 to 100
[3] = postemergence, 125 g ai/ha, scale 0 to 100
[4] = postemergence, 62 g ai/ha, scale 0 to 100

CCn1nc(C(C)(C)C)cc1C(=O)Nc1cccc(OC(F)(F)C(F)F)c1 [Compound 333]
Plant response rating, Barley, Winter (winter barley; [1]): 55 | Plant response rating, Barley, Winter (winter barley; postemergence, 125 g ai/ha, scale 0 to 100 (0 no effect, 100 complete control)): 45 | Plant response rating, Barley, Winter (winter barley; postemergence, 62 g ai/ha, scale 0 to 100 (0 no effect, 100 complete control)): 40 | Blackgrass plant response rating (blackgrass; [2]): 55 | Plant response rating, Blackgrass (blackgrass; [1]): 50 | Plant response rating, Blackgrass (blackgrass; [3]): 40 | Plant response rating, Blackgrass (blackgrass; [4]): 30 | Canarygrass plant response rating (canarygrass; [2]): 45 | Plant response rating, Canarygrass (canarygrass; [1]): 40 | Plant response rating, Canarygrass (canarygrass; [3]): 35 | Plant response rating, Canarygrass (canarygrass; [4]): 35 | Foxtail, Green plant response rating (green foxtail; [2]): 65 | Plant response rating, Foxtail, Green (green foxtail; [1]): 50 | Plant response rating, Foxtail, Green (green foxtail; [3]): 40 | Plant response rating, Foxtail, Green (green foxtail; [4]): 30 | Windgrass plant response rating (windgrass; [2]): 80 | Plant response rating, Windgrass (windgrass; [1]): 50 | Plant response rating, Windgrass (windgrass; [3]): 25 | Plant response rating, Windgrass (windgrass; [4]): 20
